From ChEMBL document CHEMBL1201862, “PubChem BioAssay data set” (2004)
“And” between values parts separate entries of the source, which are not always exact repeats. Equal entries are not always repeated.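 Interpolation was linear, between the two tested concentrations surrounding the appropriate level; five concentrations were tested over 48 hours in 96-well plates. At the GI50, growth is halved.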 The source made the active and inactive calls. No stated cut-off is given here; in the data, active = GI50 up to about 1.1 µM and inactive = higher.

How the values were obtained:
Experiment in all cases: inhibition of tumour cell growth, NCI panel, 48 h
EKVX = test system: EKVX
NCI-H460 = test system: NCI-H460
Malme-3M = test system: Malme-3M
SNB-75 = test system: SNB-75
SN12C = test system: SN12C
NCI-H226 = test system: NCI-H226
SNB-19 = test system: SNB-19
M14 = test system: M14
MCF7 = test system: MCF7
BT-549 = test system: BT-549
OVCAR-4 = test system: OVCAR-4
TK-10 = test system: TK-10
T47D = test system: T47D
OVCAR-8 = test system: OVCAR-8
A549 = test system: A549
MDA-N = test system: MDA-N
SF-268 = test system: SF-268
HCT-116 = test system: HCT-116
HOP-92 = test system: HOP-92

Structure (SMILES) | GI50 (EKVX) | GI50 (NCI-H460) | GI50 (Malme-3M) | GI50 (SNB-75) | GI50 (SN12C) | GI50 (NCI-H226) | GI50 (SNB-19) | GI50 (M14) | GI50 (MCF7) | GI50 (BT-549) | GI50 (OVCAR-4) | GI50 (TK-10) | GI50 (T47D) | GI50 (OVCAR-8) | GI50 (A549) | GI50 (MDA-N) | GI50 (SF-268) | GI50 (HCT-116) | GI50 (HOP-92)
CCC1(CC)C(=O)NN(C(=O)c2ccccc2)C1=O | > 100 µM (inactive) | > 100 µM (inactive) | > 100 µM (inactive) | 49.4 µM (inactive) | > 100 µM (inactive) | > 100 µM (inactive) | > 100 µM (inactive) | > 100 µM (inactive) | > 100 µM (inactive) | > 100 µM (inactive) | > 100 µM (inactive) | > 100 µM (inactive) | > 100 µM (inactive) | > 100 µM (inactive) | > 100 µM (inactive) | > 100 µM (inactive) | > 100 µM (inactive) | > 100 µM (inactive) | –
N=C(N)C(/N=N\c1ccccc1)C(=N)N (stereo unspecified) | 38.8 µM (inactive) | 32.1 µM (inactive) | 51.1 µM (inactive) | – | 36.6 µM (inactive) | 15 µM (inactive) | 53.7 µM (inactive) | 40.7 µM (inactive) | 25.6 µM (inactive) | 39.9 µM (inactive) | 42.4 µM (inactive) | 46.9 µM (inactive) | 46.3 µM (inactive) | 95.5 µM (inactive) | 49.9 µM (inactive) | 19.5 µM (inactive) | 59.6 µM (inactive) | 33.5 µM (inactive) | 20.3 µM (inactive)
Nc1cccnc1NCC1(CO)CCCC1 | > 100 µM (inactive) | > 100 µM (inactive) | > 100 µM (inactive) | > 100 µM (inactive) | > 100 µM (inactive) | > 100 µM (inactive) | – | – | > 100 µM (inactive) | > 100 µM (inactive) | > 100 µM (inactive) | > 100 µM (inactive) | > 100 µM (inactive) | > 100 µM (inactive) | > 100 µM (inactive) | > 100 µM (inactive) | > 100 µM (inactive) | > 100 µM (inactive) | –
COc1cc2c3c(c1)c1cc(OC)c(OC)cc1c[n+]3CC2 | 8.51 µM (inactive) | 4.32 µM (inactive) | 0.991 µM (active) | – | 1.53 µM (inactive) | 14.2 µM (inactive) | 2.49 µM (inactive) | > 50 µM (inactive) | 15.8 µM (inactive) | 2.63 µM (inactive) | 15 µM (inactive) | > 50 µM (inactive) | 5.35 µM (inactive) | 4.32 µM (inactive) | > 50 µM (inactive) | 24.8 µM (inactive) | 0.0175 µM (active) | 8.36 µM (inactive) | –
CC1OC(OC2C(OC(=O)[C@]34CCC(C)(C)C[C@H]3C3=CC[C@@H]5[C@@]6(C)CC[C@H](OC7OC(C(=O)O)C(O)C(O)C7O)C(C)(C)[C@@H]6CC[C@@]5(C)[C@]3(C)C[C@H]4O)OCC(O)C2O)C(O)C(O)C1OC1OCC(O)C(O)C1O (stereo partly specified) | – | 22 µM (inactive) and 17 µM (inactive) | 14.2 µM (inactive) and 12 µM (inactive) | 15.9 µM (inactive) and 16.9 µM (inactive) | 2.38 µM (inactive) and 4.59 µM (inactive) | 4.57 µM (inactive) and 7.19 µM (inactive) | 12.6 µM (inactive) and 8.09 µM (inactive) | 13.7 µM (inactive) and 8.59 µM (inactive) | – | 12.2 µM (inactive) and 13.5 µM (inactive) | 17.8 µM (inactive) | – | 22.2 µM (inactive) and 11.3 µM (inactive) | – | – | 10.6 µM (inactive) and 13.8 µM (inactive) | 11.6 µM (inactive) and 19.3 µM (inactive) | 14.1 µM (inactive) and 9.89 µM (inactive) | 13.8 µM (inactive) and 11.2 µM (inactive)
C=C(CN)CO[Si](C)(C)C(C)(C)C | > 100 µM (inactive) | > 100 µM (inactive) | > 100 µM (inactive) | 72.1 µM (inactive) | > 100 µM (inactive) | > 100 µM (inactive) | > 100 µM (inactive) | > 100 µM (inactive) | > 100 µM (inactive) | > 100 µM (inactive) | – | 77.1 µM (inactive) | > 100 µM (inactive) | > 100 µM (inactive) | > 100 µM (inactive) | > 100 µM (inactive) | > 100 µM (inactive) | > 100 µM (inactive) | –
COc1cc2c(cc1OC)C(=O)N(c1ccc(OCCN3CCCC3)cc1)C2 | > 100 µM (inactive) | > 100 µM (inactive) | > 100 µM (inactive) | – | > 100 µM (inactive) | > 100 µM (inactive) | > 100 µM (inactive) | > 100 µM (inactive) | > 100 µM (inactive) | > 100 µM (inactive) | > 100 µM (inactive) | > 100 µM (inactive) | > 100 µM (inactive) | > 100 µM (inactive) | > 100 µM (inactive) | > 100 µM (inactive) | > 100 µM (inactive) | > 100 µM (inactive) | > 100 µM (inactive)
Cc1cc(OC(=O)Nc2ccc(Cl)cc2)ccc1C(=S)Nc1ccccc1 | 60.3 µM (inactive) | 18.5 µM (inactive) | 53 µM (inactive) | 49.9 µM (inactive) | > 100 µM (inactive) | – | > 100 µM (inactive) | 12.6 µM (inactive) | 34.9 µM (inactive) | 91.8 µM (inactive) | 24.8 µM (inactive) | – | 34.2 µM (inactive) | > 100 µM (inactive) | 50.2 µM (inactive) | 71.3 µM (inactive) | 47.9 µM (inactive) | 28.6 µM (inactive) | > 100 µM (inactive)
O=c1cc(CNC2CC3CCC2C3)[nH]c(=O)[nH]1 (stereo unspecified) | > 100 µM (inactive) | > 100 µM (inactive) | > 100 µM (inactive) | > 100 µM (inactive) | > 100 µM (inactive) | – | > 100 µM (inactive) | > 100 µM (inactive) | > 100 µM (inactive) | > 100 µM (inactive) | > 100 µM (inactive) | > 100 µM (inactive) | > 100 µM (inactive) | > 100 µM (inactive) | > 100 µM (inactive) | > 100 µM (inactive) | > 100 µM (inactive) | > 100 µM (inactive) | –
Cc1c2cnccc2nc2[nH]c3ccncc3c12 | 16 µM (inactive) | 2.16 µM (inactive) | 3.33 µM (inactive) | > 100 µM (inactive) | 3.33 µM (inactive) | – | 13.7 µM (inactive) | 4.5 µM (inactive) | – | 6.92 µM (inactive) | 11.7 µM (inactive) | 3.95 µM (inactive) | 12.4 µM (inactive) | 6.98 µM (inactive) | 2.94 µM (inactive) | 10.6 µM (inactive) | 2.47 µM (inactive) | – | 3.78 µM (inactive)
O=C1Nc2cccc(Cl)c2/C1=C\c1c(Cl)nc2n1CCS2 | 84.7 µM (inactive) | > 100 µM (inactive) | > 100 µM (inactive) | > 100 µM (inactive) | > 100 µM (inactive) | – | > 100 µM (inactive) | > 100 µM (inactive) | 8.43 µM (inactive) | > 100 µM (inactive) | – | 60.7 µM (inactive) | 48.3 µM (inactive) | > 100 µM (inactive) | > 100 µM (inactive) | 45.6 µM (inactive) | > 100 µM (inactive) | > 100 µM (inactive) | 56.9 µM (inactive)
[O-]/[N+](=N\c1ccccc1CO)c1ccccc1CO | > 100 µM (inactive) | > 100 µM (inactive) | > 100 µM (inactive) | 84.7 µM (inactive) | > 100 µM (inactive) | > 100 µM (inactive) | > 100 µM (inactive) | > 100 µM (inactive) | > 100 µM (inactive) | > 100 µM (inactive) | > 100 µM (inactive) | > 100 µM (inactive) | > 100 µM (inactive) | > 100 µM (inactive) | > 100 µM (inactive) | > 100 µM (inactive) | > 100 µM (inactive) | > 100 µM (inactive) | –
C[C@@]12CCC3C1C=C1C(=O)c4cc(O)ccc4C(=O)[C@]1(O2)[C@@]3(C)C=O | 9.71 µM (inactive) | 2.85 µM (inactive) | – | – | 2.02 µM (inactive) | 12.6 µM (inactive) | 8.95 µM (inactive) | 8.34 µM (inactive) | 3.52 µM (inactive) | 2.51 µM (inactive) | 6.22 µM (inactive) | 11.6 µM (inactive) | 3.55 µM (inactive) | 6.01 µM (inactive) | 12 µM (inactive) | 3.48 µM (inactive) | 9.91 µM (inactive) | 3.52 µM (inactive) | 10.3 µM (inactive)
O=C(NCCNCCNC(=O)C(F)(F)F)C(F)(F)F | > 100 µM (inactive) | – | > 100 µM (inactive) | – | > 100 µM (inactive) | > 100 µM (inactive) | > 100 µM (inactive) | > 100 µM (inactive) | > 100 µM (inactive) | > 100 µM (inactive) | > 100 µM (inactive) | > 100 µM (inactive) | > 100 µM (inactive) | > 100 µM (inactive) | > 100 µM (inactive) | > 100 µM (inactive) | > 100 µM (inactive) | > 100 µM (inactive) | –
CC1=NNC(=O)C1C1(C(=O)O)CC(c2c[nH]c3ccccc23)=NC(=S)N1 (stereo unspecified) | 20 µM (inactive) | 22.8 µM (inactive) | 19 µM (inactive) | 16.6 µM (inactive) | 40 µM (inactive) | 10.1 µM (inactive) | 29.3 µM (inactive) | 16.9 µM (inactive) | – | 96.4 µM (inactive) | – | > 100 µM (inactive) | 29 µM (inactive) | 39.4 µM (inactive) | 37.7 µM (inactive) | 37.3 µM (inactive) | 32.1 µM (inactive) | 32.8 µM (inactive) | 22.3 µM (inactive)
COC(=O)C1=C(C(=O)OC)C2(C)CCC(=O)C1O2 (stereo unspecified) | > 10 µM (inactive) | > 10 µM (inactive) | > 10 µM (inactive) | 2.7 µM (inactive) | > 10 µM (inactive) | > 10 µM (inactive) | > 10 µM (inactive) | > 10 µM (inactive) | > 10 µM (inactive) | > 10 µM (inactive) | > 10 µM (inactive) | > 10 µM (inactive) | > 10 µM (inactive) | > 10 µM (inactive) | > 10 µM (inactive) | > 10 µM (inactive) | > 10 µM (inactive) | > 10 µM (inactive) | –
